Patent US20180161376A1, “COMPOSITIONS AND METHODS FOR NEURONAL DIFFERENTIATION OF CELLS” (Northern Sydney Local Health District, priority 2014, published 2018)

Columns and labels:
Type in all cases: cell-based, human
[1] = test system: SMAD4; test: RT-qPCR of SMAD4 mRNA in olfactory neurospheres treated with SB, LDN and TRIM; conditions: ONS cells
Procedure: Primary olfactory cells were dissociated into single cells and seeded onto Poly L-Lysine (Sigma) coated tissue culture dishes at 20,000 cells/cm^2 in sphering media, which consists of DMEM+1×ITS+[…]. Cells were then incubated at 37° C. with 5% CO2 until neurospheres started to form. This normally takes 2-3 days. Small neurospheres (<200 μm in diameter) were manually picked under a dissecting microscope (Leica) and collected for differentiation.
For olfactory neurosphere differentiation experiments, cells were cultured in ONS differentiation media, which consists of neural basal media+1×B27+1×L-glutamine+pen/strep+1×β-mercaptoethanol+AA+BDNF supplemented with combinations of SB, LDN and TRIM. Cells were differentiated for 3-4 days before collected for analysis. Media was changed on the second day.
RT-qPCR was performed on cDNA samples with a Rotor-Gene 6000 (Corbett) using SYBER green based assays (Qiagen). All samples were normalized to GAPDH and the relative expression of each gene was determined using the delta-delta CT method. The primer sequences used are as follows:
The ability for ONS to respond to the treatments of SB, LDN and TRIM was tested. QPCR was performed according to the methods described in the foregoing examples.

[2] = test system: olfactory neurospheres (ONS); test: Olfactory neurosphere (ONS) neuronal differentiation, immunostaining and morphology; conditions: added to ONS differentiation media, 3-4 days
Procedure: Cells were fixed in 4% paraformaldehyde for 20 min and then blocked for 2 h at room temperature before incubated with the appropriate primary antibodies overnight at 4° C. The following primary antibodies were used: mouse β-III-tubulin (Sigma, 1:500), mouse N-cam (Dako, 1:100), mouse GFAP (Merk, 1:500), chicken Sox1 (Merk, 1:500), rabbit Nestin (Merk, 1:500), rabbit Neurofilament-Light (Merk, 1:500), rabbit Synapsin (Calbiochem, 1:500) and sheep Olfactory Marker Protein (Abcam, 1:500). Appropriate secondary antibodies were added and incubated for lh before samples were washed and mounted using Prolong Gold (Invitrogen) and analyzed using either a fluorescent microscope (Nikon) or a confocal microscope (Leica). All secondary antibodies were from Molecular Probes and diluted at 1:1000, except for anti-sheep secondary antibody, which was from Dako and diluted at 1:500.
Primary olfactory cells were dissociated into single cells and seeded onto Poly L-Lysine (Sigma) coated tissue culture dishes at 20,000 cells/cm^2 in sphering media, which consists of DMEM+1×ITS+50 μg/mL EGF+25 μg/mL FGF2. Cells were then incubated at 37° C. with 5% CO2 until neurospheres started to form. This normally takes 2-3 days. Small neurospheres (<200 μm in diameter) were manually picked under a dissecting microscope (Leica) and collected for differentiation. […]

[3] = test system: olfactory primary cells; test: Olfactory primary cell culture differentiation, β-III-tubulin immunostaining; conditions: 100 μM TRIM added, in all conditions, 4-7 days

SMILES	mRNA level / expression of SMAD4 ([1]; compared to cells cultured without inhibitors)	neurite morphology [2]	level of inhibition of SMAD4 ([1]; compared to cells cultured in the absence of inhibitors) [%]	β-III-tubulin positive cells on addition of NOS inhibitor [3]
NC(=O)c1ccc(-c2nc(-c3ccc4c(c3)OCO4)c(-c3ccccn3)[nH]2)cc1 [SB431542, 4-[4-(1,3-benzodioxol-5-yl)-5-(2-pyridinyl)-1H-imidazol-2-yl]benzamide]	no change	short neurites		
Cl.c1ccc2c(-c3cnn4cc(-c5ccc(N6CCNCC6)cc5)cnc34)ccnc2c1 [LDN193189, 4-(6-(4-(piperazin-1-yl)phenyl)pyrazolo[1,5-a]pyrimidin-3-yl)quinolone hydrochloride]		short neurites	80	
FC(F)(F)c1ccccc1-n1ccnc1 [TRIM, 1-(2-Trifluoromethylphenyl) Imidazole]				further increase in β-III-tubulin positive cells
